Experimental findings from publication PMC8414802, “Hair Cell Generation in Cochlear Culture Models Mediated by Novel γ-Secretase Inhibitors” (Frontiers in Cell and Developmental Biology, 2021) are described below.

The test system of data set [1] is Atoh1, Pou4f3, Myo7a expression in otic spheres. The data set is described as follows: Otic sphere assay, hair cell gene expression. The format is cell-based, mouse. The procedure: The generation of otic spheres followed previously described protocols ([Oshima et al., 2009]) with modifications during differentiation phase to test GSIs. Briefly, OCs were dissociated and single cells were deposited in ultralow-cluster plates (Corning) and expanded in “full otic medium” consisting of DMEM/F12, supplemented with N2, B27 (Thermo Fisher), EGF (20 ng/ml; Chemicon), bFGF (10 ng/ml; Chemicon), IGF-1 (50 ng/ml; Chemicon), and heparan sulfate (50 ng/ml; Sigma-Aldrich). After culturing for 3–4 days at 37°C, spheres were collected, plated in cell culture-treated 96 well-plate and cultured in DMEM/F12, supplemented with N2, B27 with/without GSIs for 7 days after which they were lysed for RNA extraction.
(§1) Cells or tissue were lysed using RLT Lysis Buffer (Qiagen) and high purity RNA was prepared on the MagNA Pure instrument using MagNA Pure 96 Cellular RNA LV Kit (Roche). Reagents from Thermo Fisher were used for cDNA synthesis by reverse transcription using random hexamers. Resulting cDNA was RNAse H treated and amplified by TaqMan GEX mastermix and PCR primers and probes for human ATOH1 (Hs00944192_s1) and TBP (Hs00427620_m1), mouse Tbp (Mm00446971_m1), Atoh1 (Mm00476035_s1), Hes5 (Mm00439311_g1), Pouf4s (Mm04213795_s1), and Myo7a (Mm01274015_m1) on the Applied Biosystems QuantStudio 7 Flex Real-Time PCR System. Normalized to Tbp, relative gene expression fold-change was quantified and compared between experimental and control conditions by ΔΔCt calculation.
CPD3 and CPD8 were further compared for their potency to induce hair cell gene expression in otic sphere assays ([Oshima et al., 2009]). Cells were first expanded in presence of growth factors, and in a second step differentiated by growth factor removal and GSI treatment. […] This indicated a modest advantage of CPD3 in eliciting expression of the early hair cell marker Atoh1, but similar potency on expression of some later markers of HC differentiation, Pou4f3 and Myo7a (Figure 2A). From the results of two screening assays, CPD3 was selected for additional characterization studies based on its lower IC50 to induce Atoh1/ATOH1 expression in the otic spheres and LS174T cells, respectively.

Data set [2] can be described thus: Inner ear pharmacokinetics after transtympanic administration (perilymph, plasma; LC-MS/MS). Conditions: 10% POX, sampled at 0.5, 1 and 6 h post-dosing. Type of data set: in vivo, guinea pig. The method, then: Female albino Hartley guinea pigs, 250 g, from Charles River (France), housed in macrolon cages (2/cage; Innocage Rat Static-Innovive, Paris) with filter air, were maintained at 22 ± 2°C on a 12-h light cycle with standard A04C (UAR) diet and water “ad libitum.” Lgr5-GFP mice containing an EGFP-IRES-CreERT2 knock-in allele at the Lgr5 locus were obtained from the Jackson Labs (Stock 008875, C57BL/6J/RccHsd background). Atoh1-nGFP transgenic mice (C57Bl/6J background) were from Jane Johnson ([Lumpkin et al., 2003]). Wistar rats were obtained from Charles River.
γ-secretase inhibitors pharmacokinetic studies tested CPD3, CPD8 (Eli Lilly) or LY411575 (Stemcell Technologies) each formulated at 3.4 mg/ml in the following vehicles, 10% Poloxamer 338 (Sigma), 20% Poloxamer 338, 70% PEG400 (Sigma) or 1% hyaluronic acid (HA-700; Lifecore, Chaska, MN, United States) all prepared with PBS (pH 6.2). A single 70 μl injection of the formulated compound (total dose, 870 μg/kg) was delivered to the middle ear space of isoflurane-anesthetized guinea pigs by transtympanic administration. Perilymph from treated animals (perilymph volumes, >2 μl) was collected at time points up to 48 h post-administration (CILcare, Montpellier, France). Briefly, concentrations of each compound in perilymph and plasma, as well as controls prepared in artificial perilymph, were measured by LC-MS/MS on an AB Sciex, API 4000 mass spectrometer using an Onyx C18 5 μm 50^∗2.0 mm separation column (Oroxcell, Romainville, France).
To verify this, in vivo compound concentrations were measured in perilymph of guinea pigs after intratympanic delivery of GSIs into the middle ear. Initially, four vehicle formulations, with different physical properties, were tested, poloxamer 338 (POX; at 10% or 20%), hyaluronic acid (HA), or polyethylene glycol 400 (PEG). For this comparison only one GSI was prepared in each formulation (CPD3, 3.4 mg/ml) and a single dose was injected into the middle ear. Perilymph and plasma were sampled for 48 h (Figure 1D). […] Next, using only 10% POX as vehicle, inner ear adsorption was compared between CPD3, CPD8, and LY411575 by transtympanic injections (Figure 1D, inset). […] Each compound achieved levels several folds above their respective IC50s. The mean maximal perilymph concentration of CPD3 at 0.5 h post-dosing was 85,489 ng/ml (183 μM), then declined at 1 h to 12,928 ng/ml (27.7 μM), and at 6 h to 12,652 ng/ml (27.1 μM). GSIs in plasma samples were not detected (data not shown).

The subject of data set [3] is Notch-dependent expression of ATOH1 in LS174T cells. Briefly: ATOH1 expression induction in LS174T cell line by GSIs (RT-PCR). To be noted: GSI treatment 72 h, fold-change vs 0.05% DMSO, read-out: IC50 for ATOH1 expression upregulation. The format is cell-based, human. The procedure:
The human colon cancer cell line LS174T (CL-188; ATCC) was cultured without antibiotics in 1% FBS/Eagle’s Minimum Essential Medium (MEM; Thermo Fisher) ([Asakura et al., 2018]). […]
as §1
Statistical analysis was performed with GraphPad Prism software (Prism9; GraphPad Software Inc., San Diego, CA, United States). For explant cultures, when the number of explants/replicates was not sufficient to test for Gaussian distribution normal distribution of the data was assumed based on previous experiments ([Perny et al., 2017]; [Erni et al., 2019]). Alternatively, the distribution of the datasets was tested by D’Agostino and Pearson normality test. Unpaired t-tests were used to compare parametric data sets of two groups. Welch’s correction was applied if variances were not equal. For non-parametric data, the Mann–Whitney test was adopted. One-way ANOVA was used to determine the difference in means among multiple groups and multiple comparison correction was tested. Graphs indicate the single data point, the mean values ± standard deviation. IC50s were calculated by non-linear regression of data normalized by percent change from controls to compare multiple experiments. Differences in IC50s from Best fit data were compared by Least Squares (F-test; Extra sum of squares; alpha = 0.05).
To measure the relative potency between different GSIs, a pharmacological assay was initially used to identify the dose ranges effective to induce ATOH1 expression. The cell line LS174T, a human colorectal adenocarcinoma, was used to evaluate Notch-dependent expression of ATOH1 ([Kazanjian et al., 2010]). Two compounds from Eli Lilly, designated LY3056480 (CPD3) and LY3056359 (CPD8) (Figures 1A,B) were compared with the commercially available GSIs LY411575 and DAPT. […] The intermediate potency of CPD3 and 8 was likely to be adequate to achieve levels above the IC50 after dilution into perilymph in the inner ear.

The test system of data set [4] is hair cell genes Atoh1, Pou4f3, Myo7a in OC explants. The data set is described as follows: Hair cell gene expression in organ of Corti explants (RT-PCR). The format is cell-based, mouse. Conditions: 5 μM, 4 days, vs DMSO. The procedure:
OC explants were isolated from postnatal day 2 (P2) Wistar rats, P0-P2 mice (Lgr5-GFP or Atoh1-nGFP mice). Dissection of the cochlea under a stereomicroscope (Nikon SMZ800, Japan) allowed OC separation from stria vascularis and modiolus, and the sensory epithelium was plated with hair cells facing up on Cell-Tak (Corning, United States)-coated transwell-clear inserts (6-well format, 0.4 μm pore, Corning, United States). Dissection medium was exchanged for 1.5 ml full otic medium supplemented with 10% FBS (Invitrogen) and 0.01% Ampicillin (Sigma), added under the insert membrane, maintaining the OC under a thin film of medium during culture at 37°C. 5-ethyl-2′-deoxyuridine (EdU, 5 μM, Life Technologies) was added directly in the medium when indicated.
Concentrations of small molecule GSIs {LY411575, CPD3, CPD8, DAPT (N-[N-(3,5-Difluorophenacetyl)-L-alanyl]-S-phenylglycine t-butyl ester; Sigma)} were prepared in DMSO and are indicated in Figure Legends and Results. DMSO included as Control. Treatment groups were assigned randomly.
as §1
FIGURE 2 GSI-mediated induction of hair cell gene expression and de novo generation of hair cells in the neonatal cochlear sensory epithelium. (A) Gene expression changes of Atoh1, Pou4f3, and Myo7a in response to Notch pathway inhibition by CPD3 (solid lines, triangles) and CPD8 (dashed lines, open square) in otic spheres. Gene expression is reported as fold-change relative to carrier control-treated (DMSO, 0.05%). (n = 9–12). […] (B) Gene expression analysis for the hair cell genes Atoh-1, Myo7a, and Pou4f3. DMSO control n = 13, CPD3 n = 12, LY411575 n = 9, DAPT n = 6 from 2–4 independent experiments. OC explants were cultured for 4 days with/without GSI prior to lysis and analysis. One-way ANOVA with Dunnett’s multiple comparison test, each condition compared to DMSO control. (*p < 0.05, **p < 0.005, ***p < 0.001). (C) Cell counts of Atoh1 positive HCs (OHC left, IHC right) in the mouse cochlear sensory epithelium in the mid-apex region after 7 days in culture with different γ-secretase inhibitors. One-way ANOVA Dunnett’s multiple comparison test, each condition compared to DMSO control. (*p < 0.05; n = 3–5 independent experiments). (D) Quantification of Pou4f3 positive HCs (OHC left, IHC right) in the cochlear sensory epithelium from P2 rats in the apical domain after 8 days in culture with different γ-secretase inhibitors. One-way ANOVA with Dunnett’s multiple comparison test, each condition compared to DMSO control (*p < 0.05, n = 3). Representative immunohistological images of the apical domain after 8 days incubation (inset). scale bar = 20 μm. (E) Quantification of Pou4f3 positive OHCs in the apex, middle and basal domain of organ of Corti explants from rats after 4 days of CPD3 treatment compared to DMSO (*p < 0.05, unpaired t-test) n = 4–6 explants from 2 independent experiments.

By pIC50 is commonly meant −log10 of the IC50, conventionally taken in molar units.

pIC50: −log10 of the molar value. Where two headings read alike, the source gives them in different places.

As to `C[C@H](NC(=O)CCC(F)(F)F)C(=O)N[C@@H]1C(=O)C=C2N(CCC2(C)C)c2ncccc21` [CPD8], the pIC50 is 6.52 in data set [1] (Mus musculus, 168 h, 7 days differentiation with GSI, read-out: IC50 for Atoh1 upregulation) and 7.21 in data set [3] (Homo sapiens). Further, in data set [1] (dose-responsive, p < 0.05), the “Induction of Atoh1, Pou4f3 and Myo7a expression” value was “significantly induced”. Moreover, in data set [2], the Perilymph concentrations quantifiable entry is reported as “quantifiable at all time points”.
As to `C[C@H](NC(=O)Cc1cc(F)cc(F)c1)C(=O)N[C@H](C(=O)OC(C)(C)C)c1ccccc1` [DAPT, N-[N-(3,5-Difluorophenacetyl)-L-alanyl]-S-phenylglycine t-butyl ester], in data set [4], the Atoh1 expression is listed as 2.36 ± 0.39 fold, the Myo7a expression came to 1.59 ± 0.21 fold and the Pou4f3 expression was 2.14 ± 0.36 fold. For the same compound, the pIC50 in data set [3] is 5.85.
